According to US20090324737A1, “Antimicrobial And Sporicidal Composition” (priority 2002, published 2009):

Tested on: Bacillus subtilis spores
Test: Sporicidal activity against Bacillus subtilis spore suspension (cfu pour-plate count vs distilled water controls)
Type: cell-based
Settings: spore suspension diluted 1:100 into composition
Description: Spore suspensions were prepared by streaking standard agar plates with Bacillus subtilis and then incubating the plates for 48-72 hours at 37° C. The resulting bacteria and their spores were scraped from the plates and suspended by agitation in a 50% ethanol-water solution for four hours in order to lyse the vegetative cells. The spores were collected by centrifugation, washed three times and then suspended in 50% ethanol-water, resulting in a spore titer of 10^9 spores/mL. […] After treatment, the spore suspensions were diluted in distilled water and duplicate aliquots from each dilution were pour-plated on tripticase soy agar. Total colony-forming units (cfu) were counted after incubation at 37° C. for 24 hours. Sporicidal activity was directly proportional to the reduction of cfu compared to the distilled water controls.
Test results from representative compositions are summarized in Table 1 and the associated graph of the data (FIG. 2). In addition, test data for exposure to 0.1% L-alanine in the absence of sporicidal agents is included.

C[C@H](N)C(=O)O [L-alanine]
Test results of Spore-inactivating Compositions vs. Exposure Time (cfu compared to distilled water controls) (exposure time 0.00 hrs): 100.0%
Test results of Spore-inactivating Compositions vs. Exposure Time (cfu compared to distilled water controls) (exposure time 0.25 hrs): 106.0%
Test results of Spore-inactivating Compositions vs. Exposure Time (cfu compared to distilled water controls) (exposure time 0.50 hrs): 111.0%
Test results of Spore-inactivating Compositions vs. Exposure Time (cfu compared to distilled water controls) (exposure time 1.00 hrs): 113.0%
Test results of Spore-inactivating Compositions vs. Exposure Time (cfu compared to distilled water controls) (exposure time 4.00 hrs): 116.0%
